Experimental findings from ChEMBL document CHEMBL1153435, “Harnessing nature's insight: design of aspartyl protease inhibitors from treatment of drug-resistant HIV to Alzheimer's disease” (J Med Chem, 2009) are described below.

Each structure is given as a SMILES string. *1 amine or outer side, *2 acyl side, *3 side chain or, on linkers, in order; H or OH if unused. Where a SMILES comes first, the peptide text is derived from it. [ ]: non-standard residue; d: D form. LeuΨ(S-CHOHCH2)Ala = CC(C)C[C@H](N[*:1])[C@@H](O)C[C@@H](C)C(=O)[*:2]

Data set [1] deals with Human immunodeficiency virus 1. As to the kind of experiment: Antiviral activity against HIV1 assessed as inhibition of viral replication. In kind it is functional, organism-based. The following applies: for IC95: read-out: CIC95.
In data set [2] the test system is Human immunodeficiency virus 1. As to the kind of experiment: Antiviral activity against laboratory HIV1 strains and primary clinical isolates.
The target of another data set is Protease (Human immunodeficiency virus 1, UniProt Q9YQ12). As to the kind of experiment: Inhibition of HIV1 protease.
Sequence of Protease (Q9YQ12 whole entry): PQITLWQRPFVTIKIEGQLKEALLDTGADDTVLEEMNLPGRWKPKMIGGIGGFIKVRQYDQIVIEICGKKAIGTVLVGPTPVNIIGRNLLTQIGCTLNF
Data set [3] can be described thus: Oral bioavailability in HIV1 infected patient at 600 mg administered as single dose. Type of data set: ADME, organism-based. The settings on record: human, in vivo.
In another data set the target is Beta-secretase 1 (Homo sapiens, UniProt P56817). In words: Inhibition of recombinant memapsin 2.
Sequence of Beta-secretase 1 (P56817 whole entry): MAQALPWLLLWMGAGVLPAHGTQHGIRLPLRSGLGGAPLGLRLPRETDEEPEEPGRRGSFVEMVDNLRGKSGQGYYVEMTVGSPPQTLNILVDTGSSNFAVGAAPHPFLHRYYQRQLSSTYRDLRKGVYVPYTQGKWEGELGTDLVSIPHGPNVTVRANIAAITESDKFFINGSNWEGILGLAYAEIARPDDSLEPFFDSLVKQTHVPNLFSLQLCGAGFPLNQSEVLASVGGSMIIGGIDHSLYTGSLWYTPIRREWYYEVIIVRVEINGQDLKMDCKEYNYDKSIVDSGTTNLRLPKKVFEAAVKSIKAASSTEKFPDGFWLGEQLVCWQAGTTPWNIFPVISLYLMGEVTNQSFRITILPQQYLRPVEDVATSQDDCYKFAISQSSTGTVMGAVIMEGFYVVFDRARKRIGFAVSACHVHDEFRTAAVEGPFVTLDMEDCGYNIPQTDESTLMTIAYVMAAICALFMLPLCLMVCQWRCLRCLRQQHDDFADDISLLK
Data set [4] concerns Human immunodeficiency virus 1. As to the kind of experiment: Antiviral activity against protease inhibitor resistant HIV1 isolates. Type of data set: functional, organism-based.
The target in data set [5] is Protease (Human immunodeficiency virus 1) (UniProt Q9YQ12).
Sequence of Protease (Human immunodeficiency virus 1) (Q9YQ12 as listed by the source): as the sequence (Q9YQ12 whole entry) above
The mark [6] stands for this setting: read-out: ID50 (the source's name).

For `CC(C)CN(C[C@@H](O)[C@H](Cc1ccccc1)NC(=O)O[C@H]1CO[C@H]2OCC[C@H]21)S(=O)(=O)c1ccc(N)cc1`, the IC50 in data set [1] (read-out: IC50) came to 4.1 nM. Further, in data set [2], it took 9 nM to reach the 90% level (IC90).

As for `COc1ccc(S(=O)(=O)N(C[C@@H]2CCC(=O)N2)C[C@@H](O)[C@H](Cc2ccccc2)NC(=O)O[C@H]2CC[C@H]3OCC[C@@H]23)cc1`, at Protease, the IC50 turned out to be 28 nM and the inhibitory constant (Ki) – broadly, the equilibrium dissociation constant of an inhibitor or competing ligand from its target – was 0.16 nM.

Take `CC(C)(C)NC(=O)[C@@H]1C[C@@H]2CCCC[C@@H]2CN1C[C@@H](O)[C@H](Cc1ccccc1)NC(=O)O[C@H]1CCS(=O)(=O)C1`: in data set [1], the IC95 is 350 nM. At Protease, the IC50 stood at 76 nM.

As to `COc1ccc(S(=O)(=O)N(CC(C)C)C[C@@H](O)[C@H](Cc2ccccc2)NC(=O)O[C@H]2CO[C@@H]3OCC[C@@H]32)cc1`, the IC50 in data set [1] (read-out: IC50) came out at 4.1 nM.

`CC(C)(C)NC(=O)[C@@H]1C[C@@H]2CCCC[C@@H]2CN1C[C@@H](O)[C@H](Cc1ccccc1)NC(=O)O[C@H]1CCOC1`: the IC95 in data set [1] came out at 800 nM. This compound also came in with an IC50 against Protease of 160 nM.

As to `COc1ccc(S(=O)(=O)N(CC(C)C)C[C@@H](O)[C@H](Cc2ccccc2)NC(=O)[C@@H]2CCO[C@]3(CCCO3)C2)cc1`, the IC50 in data set [1] (setting [6]) is 1200 nM. Besides, at Protease, affinity was put at a Ki of 3.9 nM.

Consider `O=C(N[C@@H](Cc1ccccc1)[C@@H](O)C[C@@H](Cc1ccccc1)C(=O)N[C@H]1c2ccccc2C[C@H]1O)O[C@H]1CCOC1`, for which the IC95 in data set [1] amounted to 3 nM. This compound also had an IC50 at Protease below 0.03 nM.

Consider `COc1ccc(S(=O)(=O)N(CC(C)C)C[C@@H](O)[C@H](Cc2ccccc2)NC(=O)O[C@H]2COC3OCCC[C@@H]32)cc1` (single isomer, unassigned), for which the IC50 in data set [1] (setting [6]) came out at 4.5 nM. In addition, the Ki at Protease was found to be 2.2 nM.

With `COc1ccc(S(=O)(=O)N(CC(C)C)C[C@@H](O)[C@H](Cc2ccccc2)NC(=O)[C@@H]2CCCS(=O)(=O)C2)cc1`, in data set [1] (setting [6]), the IC50 is 17 nM. This compound also had a Ki on Protease of 1.4 nM.

With `CC(C)(C)NC(=O)[C@@H]1C[C@@H]2CCCC[C@@H]2CN1C[C@@H](O)[C@H](Cc1ccccc1)NC(=O)O[C@H]1CO[C@H]2OCC[C@H]21`, the IC95 in data set [1] was found to be 46 nM.

For `COc1ccc(S(=O)(=O)N(CC(C)C)C[C@@H](O)[C@H](Cc2ccccc2)NC(=O)O[C@H]2CC[C@]3(CCCO3)C2)cc1`, the IC50 in data set [1] (setting [6]) amounted to 265 nM. The compound also yielded a Ki on Protease of 3.7 nM.

For the compound `CC(C)(C)NC(=O)[C@@H]1C[C@@H]2CCCC[C@@H]2CN1C[C@@H](O)[C@H](Cc1ccccc1)NC(=O)[C@@H](NC(=O)c1ccc2ccccc2n1)[C@H]1CCOC1`, in data set [1], the IC95 stood at 8 nM. For the same compound, the IC50 at Protease is 0.05 nM.

With `CC(C)c1nc(CN(C)C(=O)N[C@H](C(=O)N[C@@H](Cc2ccccc2)C[C@H](O)[C@H](Cc2ccccc2)NC(=O)OCc2cncs2)C(C)C)cs1` [RITONAVIR], the bioavailability – broadly, the share of a dose that reaches the circulation, judged against a reference dose that is usually intravenous – in data set [3] is 37%.

For the compound `COc1ccc(S(=O)(=O)N(CC(C)C)C[C@@H](O)[C@H](Cc2ccccc2)NC(=O)O[C@H]2CC[C@H]3OCO[C@@H]23)cc1`, on Protease, the IC50 stood at 3.8 nM and the Ki was 0.11 nM.

Take `COc1ccc(S(=O)(=O)N(CC(C)C)C[C@@H](O)[C@H](Cc2ccccc2)NC(=O)O[C@H]2CCS(=O)(=O)C2)cc1`: the IC50 in data set [1] (setting [6]) was 19 nM. At Protease, this compound gave a Ki of 1.4 nM.

As to `CSCC[C@H](NC(=O)[C@@H](NC(=O)OC(C)(C)C)C(C)C)C(=O)N[C@@H](CC(C)C)[C@@H](O)C[C@@H](C)C(=O)N[C@H](C(=O)NCC(C)C)C(C)C`, the Ki at Beta-secretase 1 was determined as 0.8 nM.

In turn, `COc1ccc(S(=O)(=O)N(CC(C)C)C[C@@H](O)[C@H](Cc2ccccc2)NC(=O)O[C@H]2CO[C@H]3OCC[C@H]32)cc1` had an IC50 in data set [4] of 0.5 nM.

Take `CC(C)C[C@H](NC(=O)[C@H](CC(N)=O)NC(=O)[C@@H](N)C(C)C)[C@@H](O)C[C@@H](C)C(=O)N[C@@H](C)C(=O)N[C@@H](CCC(=O)O)C(=O)N[C@@H](Cc1ccccc1)C(=O)O` (H-VN[LeuΨ(S-CHOHCH2)Ala]AEF-OH): the Ki at Beta-secretase 1 is 6.8 nM.

As to `COc1ccc(S(=O)(=O)N(CC(C)C)C[C@@H](O)[C@H](Cc2ccccc2)NC(=O)[C@@H]2CCC[C@]3(CCCO3)C2)cc1`, the affinity at Protease corresponds to a Ki of 2.9 nM.

In turn, `COc1ccc(S(=O)(=O)N(CC(C)C)C[C@@H](O)[C@H](Cc2ccccc2)NC(=O)O[C@@H]2CCOCOC2)cc1` registered an IC50 at Protease of 5 nM.

As for `CC(C)CN(C[C@@H](O)[C@H](Cc1ccccc1)NC(=O)O[C@H]1CO[C@H]2OCC[C@H]21)S(=O)(=O)c1ccc2c(c1)OCO2`, the IC50 in data set [1] (read-out: IC50) came to 1.4 nM.

Regarding `CC(C)(C)NC(=O)[C@@H]1C[C@@H]2CCCC[C@@H]2CN1C[C@@H](O)[C@H](Cc1ccccc1)NC(=O)O[C@H]1CC[C@H]2OCC[C@@H]12`, the IC50 against Protease worked out at 17 nM.

Regarding `CC(C)(C)NC(=O)[C@@H]1C[C@@H]2CCCC[C@@H]2CN1C[C@@H](O)[C@H](Cc1ccccc1)NC(=O)[C@H](CC(N)=O)NC(=O)c1ccc2ccccc2n1`, the IC50 in data set [1] (setting [6]) stood at 18 nM.

As for `O=C(N[C@@H](Cc1ccccc1)[C@@H](O)C[C@@H](Cc1ccccc1)C(=O)N[C@H]1c2ccccc2C[C@H]1O)OC1CCCC1`, the IC95 in data set [1] was determined as 400 nM. In addition, the IC50 against Protease was 0.3 nM.

`CC(C)CN(C[C@@H](O)[C@H](Cc1ccccc1)NC(=O)O[C@H]1CCOC1)S(=O)(=O)c1ccc(N)cc1`: the IC90 – broadly, the point of the concentration-response curve where the effect stands at 90% – in data set [5] is 40 nM. At Protease, this compound yielded a Ki of 0.6 nM.
